The values that follow are results of earlier work, collected in patent publication US20210268011A1, “AMPK ACTIVATING AGENT” (ORYZA OIL & FAT CHEMICAL CO., LTD., priority 2018, published 2021).

The test system of the data set is AMPK. Particulars: recent research, Non-patent Document 4; cited from earlier work.

`CN(C)C(=N)N=C(N)N` [metformin]: the AMPK activation result was “activated”.
